Assay results as given in US12384769B2, “Heteroaryl-substituted aminoalkyl azole compounds as pesticides” (Elanco Animal Health GmbH, priority 2019, dated 2025).

Key:
Format in all cases: in vivo
[1] = test system: Ctenocephalides felis; test: Ctenocephalides felis in-vitro contact test, adult cat flea; settings: 5 μg/cm^2 (=500 g/ha), after 48 hours, read-out: activity (efficacy, fleas dead or moribund)
How it was run: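 Acetone solutions coated onto inner walls of glass tubes; 900 ppm gives 5 μg/cm^2. After drying, 5-10 adult Ctenocephalides felis per tube held 48 h at room temperature. Fleas then placed on 45-50° C. plate for up to 5 min; those unable to climb away scored dead or moribund, efficacy as % dead/moribund.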

[2] = test system: Anopheles funestus strain FUMOZ-R; test: Anopheles funestus test (ANPHFU surface treatment & contact assay); settings: 30 minutes exposure, 24 hours after contact, read-out: efficacy (mortality); for mortality at 20 mg/m2: surface concentration 20 mg/m^2, glazed tile
Description: Anopheles funestus Test (ANPHFU Surface Treatment & Contact Assay)
(§1) Solvent: Aceton+2000 ppm rapeseed oil methyl ester (RME)
(§2) In order to produce a sufficient, active ingredient containing solution it is necessary to solve the test compound in the solvent-mix (acetone at 2 mg/mL/RME 2000 ppm). This solution is pipetted onto a glazed tile and after evaporation of the acetone, adult mosquitoes of the species Anopheles funestus strain FUMOZ-R (Hunt et al., Med. Vet. Entomol. 2005 September; 19(3): 271-275) are placed onto the dried surface. The exposure time is 30 minutes.
(§3) Mortality in percent (%) is determined 24 hours after contact of the insects to the treated surface. 100% mortality means that all tested insects are dead, whereas 0% means that no insect died.

[3] = test system: Myzus persicae; test: Myzus persicae oral test; settings: 120 h, after 5 days
Description: Solvent: 100 parts by weight acetone
Afterwards the plates are sealed with parafilm through which a mixed population of the green peach aphid (Myzus persicae) can suck on the compound preparation.
(§4) After 5 days mortality in % is determined. 100% means all aphids have been killed and 0% means none of the aphids have been killed.

[4] = test system: Culex quinquefasciatus strain P00; test: Culex quinquefasciatus test (CULXFA surface treatment & contact assay); settings: surface concentration 20 mg/m^2, glazed tile, 30 minutes exposure, 24 hours after contact, read-out: efficacy (mortality)
Description: Culex quinquefasciatus Test (CULXFA Surface Treatment & Contact Assay)
as §1
as §2, with “2 000” for “2000”, “Culex quinquefasciatus” for “Anopheles funestus”, “P00” for “FUMOZ-R (Hunt et al., Med. Vet. Entomol. 2005 September; 19(3): 271-275)”
as §3

[5] = test system: Boophilus microplus; test: Boophilus microplus injection test (BOOPMI Injection); settings: Rhipicephalus microplus, 168 h, injection into adult engorged female ticks, egg deposition after 7 days, read-out: activity (efficacy, infertile eggs); for pest or weed control at 0.004 mg: 4 μg/animal; for pest or weed control at 0.02 mg: 20 μg/animal
How it was run: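 Adult engorged female ticks (5 per group) injected into the abdomen with 1 μL compound in DMSO, then held in a climate chamber. Fertile egg deposition scored after 7 days, with unclear eggs kept until hatching (~42 days). Efficacy 100% = all eggs infertile, 0% = all fertile.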

[6] = test system: Diabrotica balteata; test: Diabrotica balteata spray test; settings: 168 h, wheat seeds, after 7 days, read-out: activity (efficacy, seedlings grown); for pest or weed control at 160 µg/disc, 500 g/ha: 500 g/ha (=160 μg/well)
How it was run: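 Efficacy was read 7 days after infesting each unit with 10–20 banded cucumber beetle larvae, as % of seedlings growing like untreated, uninfested controls. Before infestation, wheat seeds germinated 1 day on agar (5 per well) were sprayed with the active ingredient. The active was formulated in acetone/DMF and diluted in water containing emulsifier.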

[7] = test system: Aedes aegypti strain MONHEIM; test: Aedes aegypti test (AEDSAE surface treatment & contact assay); settings: 30 minutes exposure, 24 hours after contact, read-out: efficacy (mortality); for mortality at 20 mg/m2: surface concentration 20 mg/m^2, glazed tile
Description: Aedes aegypti Test (AEDSAE Surface Treatment & Contact Assay)
as §1
as §2, with “Aedes aegypti” for “Anopheles funestus”, “MONHEIM” for “FUMOZ-R (Hunt et al., Med. Vet. Entomol. 2005 September; 19(3): 271-275)”
as §3

[8] = test system: Rhipicephalus microplus (strain Parkhurst, resistant against synthetic pyrethroids); test: Rhipicephalus microplus in-vitro contact test, larval cattle tick (BOOPMI Contact); settings: 5 μg/cm^2 (=500 g/ha), after 48 hours, read-out: activity (efficacy, larvae dead or moribund)
How it was run: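 Efficacy, expressed as percentage of larvae dead or moribund, is judged by negative geotactic behaviour 48 h after larvae (20-50 per tube) enter tubes whose inner walls carry a dried acetone film of compound, 5 μg/cm² at 900 ppm. Incubation: horizontal, 27 °C, 85% relative humidity.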

[9] = test system: Spodoptera frugiperda; test: Spodoptera frugiperda spray test; settings: in Zea mays, 168 h, read-out: activity (mortality)
How it was run: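 Larvae of fall armyworm placed on dried maize leaf sections previously sprayed with emulsified compound (acetone/DMF solvent, water with 1000 ppm emulsifier). Percent of caterpillars killed recorded on day 7, 0–100% scale.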

[10] = test system: Ctenocephalides felis; test: Ctenocephalides felis oral test (CTECFE); settings: 48 h, 100 ppm in cattle blood, after 2 days
How it was run: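 About 20 adult unfed fleas fed through parafilm on cattle blood held at 37° C and dosed with compound from a DMSO concentrate; flea chamber at room temperature. Percent mortality scored after 2 days.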

[11] = test system: Tetranychus urticae; test: Tetranychus urticae spray test OP-resistant; settings: foliar, 144 h, 500 g/ha, French bean leaf disks, after 6 days
Description: Tetranychus urticae—Spray Test OP-Resistant
(§5) Solvent: 78.0 parts by weight acetone • 1.5 parts by weight dimethylformamide
(§6) Emulsifier: alkylarylpolyglycol ether
(§7) To produce a suitable preparation of active compound, 1 part by weight of active compound is mixed with the stated amount of solvents and is diluted with water, containing an emulsifier concentration of 1000 ppm, to the desired concentration. Further test concentrations are prepared by dilution with emulsifier containing water.
French bean (Phaseolus vulgaris) leaf disks infected with all instars of the two spotted spidermite (Tetranychus urticae) are sprayed with a preparation of the active ingredient of the desired concentration.
After 6 days mortality in % is determined. 100% means all spider mites have been killed and 0% means none of the spider mites have been killed.

[12] = test system: Meloidogyne incognita; test: Meloidogyne incognita test; settings: 20 ppm, after 14 days
Description: Meloidogyne incognita—Test
Solvent: 125.0 parts by weight of acetone
To produce a suitable preparation of active compound, 1 part by weight of active compound is mixed with the stated amount of solvent, and the concentrate is diluted with water to the desired concentration.
Vessels are filled with sand, a solution of the active ingredient, a suspension containing eggs and larvae of the southern root-knot nematode (Meloidogyne incognita) and salad seeds. The salad seeds germinate, and the seedlings grow. Galls develop in the roots.
After 14 days the nematicidal activity is determined based on the percentage of gall formation. 100% means no galls were found and 0% means the number of galls found on the roots of the treated plants was equal to that in untreated control plants.

[13] = test system: Rhipicephalus sanguineus; test: Rhipicephalus sanguineus in-vitro contact test, adult brown dog ticks (RHIPSA Contact); settings: 5 μg/cm^2 (=500 g/ha), after 48 hours, read-out: activity (efficacy, ticks dead or moribund)
How it was run: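 Acetone solution coated onto glass tube walls; 900 ppm gives 5 μg/cm^2. After drying, 5-10 adult ticks per tube kept at room temperature for 48 h, then placed on a 45-50° C heating plate up to 5 min; ticks unable to climb away counted dead or moribund, efficacy as % affected.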

[14] = test system: Myzus persicae; test: Myzus persicae spray test; settings: foliar, 120 h, Chinese cabbage leaf disks, after 5 days
Description: Myzus persicae—Spray Test
as §5, §6, §7
Chinese cabbage (Brassica pekinensis) leaf disks infected with all instars of the green peach aphid (Myzus persicae), are sprayed with a preparation of the active ingredient of the desired concentration.
as §4

[15] = test system: Musca domestica strain WHO-N; test: Musca domestica test (MUSCDO surface treatment & contact assay); settings: 30 minutes exposure, 24 hours after contact, read-out: efficacy (mortality)
Description: Musca domestica Test (MUSCDO Surface Treatment & Contact Assay)
as §1
as §2, with “flies” for “mosquitoes”, “Musca domestica” for “Anopheles funestus”, “WHO—N” for “FUMOZ-R (Hunt et al., Med. Vet. Entomol. 2005 September; 19(3): 271-275)”
as §3

[16] = surface concentration 4 mg/m^2, glazed tile

C[C@H](Nc1nc2cc(C(F)(F)F)cc(C(F)(F)F)c2o1)c1ncnn1-c1ncccn1 [Example I-005]
pest or weed control at 5 µg/cm2, 5 µg/cm2 [1]: 100%
mortality at 20 mg/m2 [2]: 90 to 100%
mortality at 4 ppm [3]: 90%
mortality at 20 mg/m2 [4]: 90 to 100%
pest or weed control at 0.004 mg [5]: 100%
pest or weed control at 0.02 mg [5]: 100%
pest or weed control at 160 µg/disc, 500 g/ha [6]: 100%
mortality at 20 mg/m2 [7]: 90 to 100%
pest or weed control at 5 µg/cm2 [8]: 100%
mortality at 100 g/ha [9]: 100%
mortality at 500 g/ha [9]: 100%
mortality at 100 ppm [10]: 100%

C[C@H](Nc1nc2cc(Cl)c(Cl)cc2o1)c1ncnn1-c1ncccn1 [Example I-016]
mortality at 500 g/ha [11]: 90%
pest or weed control at 0.02 mg [5]: 100%
pest or weed control at 100 g/ha [6]: 100%
pest or weed control at 160 µg/disc, 500 g/ha [6]: 100%
pest or weed control at 5 µg/cm2 [8]: 100%
mortality at 500 g/ha [9]: 100%

C[C@H](Nc1nc2cc(C(F)(F)F)cc(Cl)c2o1)c1ncnn1-c1ccc(Cl)nn1 [Example I-046, 7-Chlor-N-{(1S)-1-[1-(6-chlorpyridazin-3-yl)-1H-1,2,4-triazol-5-yl]ethyl}-5-(trifluormethyl)-1,3-benzoxazol-2-amin]
activity (nematicidal activity, gall formation) [12]: 90%
pest or weed control at 5 µg/cm2 [8]: 80%

C[C@H](Nc1nc2cc(C3CC3)cc(Cl)c2o1)c1ncnn1-c1ncccc1F [Example I-067, 7-Chlor-5-cyclopropyl-N-{(1S)-1-[1-(3-fluorpyridin-2-yl)-1H-1,2,4-triazol-5-yl]ethyl}-1,3-benzoxazol-2-amin]
pest or weed control at 5 µg/cm2, 5 µg/cm2 [13]: 80%
mortality at 500 g/ha [11]: 90%
pest or weed control at 0.004 mg [5]: 100%
pest or weed control at 0.02 mg [5]: 100%
pest or weed control at 160 µg/disc, 500 g/ha [6]: 80%
mortality at 100 ppm [10]: 80%

C[C@H](Nc1nc2cc(OC(F)(F)F)c(Cl)cc2o1)c1ncnn1-c1ncc(F)cn1 [Example I-081, 6-Chlor-N-{(1S)-1-[1-(5-fluorpyrimidin-2-yl)-1H-1,2,4-triazol-5-yl]ethyl}-5-(trifluormethoxy)-1,3-benzoxazol-2-amin]
pest or weed control at 5 µg/cm2, 5 µg/cm2 [1]: 100%
mortality at 4 mg/m2 [2, 16]: 85 to 100%
mortality at 20 mg/m2 [2]: 90 to 100%
mortality at 4 ppm [3]: 90%
mortality at 100 g/ha [14]: 90%
pest or weed control at 5 µg/cm2, 5 µg/cm2 [13]: 100%
pest or weed control at 100 g/ha [6]: 100%
mortality at 4 mg/m2 [7, 16]: 85 to 100%
mortality at 20 mg/m2 [7]: 90 to 100%
pest or weed control at 5 µg/cm2 [8]: 90%
mortality at 100 g/ha [9]: 100%
mortality at 4 mg/m2 [15, 16]: 90 to 100%
mortality at 20 mg/m2 ([15]; surface concentration 20 mg/m^2, glazed tile): 90 to 100%

C[C@H](Nc1nc2cc(Cl)cc(C(F)(F)F)c2o1)c1ncnn1-c1ccc(C(F)(F)F)cn1 [Example I-087, 5-Chlor-7-(trifluormethyl)-N-[(1S)-1-{1-[5-(trifluormethyl)pyridin-2-yl]-1H-1,2,4-triazol-5-yl}ethyl]-1,3-benzoxazol-2-amin]
activity (nematicidal activity, gall formation) [12]: 90%
pest or weed control at 5 µg/cm2 [8]: 100%

C[C@H](Nc1nc2cc(Cl)cc(C(F)(F)F)c2o1)c1ncnn1-c1ccc(C#N)cn1 [Example I-088, 6-{5-[(1S)-1-{[5-Chlor-7-(trifluormethyl)-1,3-benzoxazol-2-yl]amino}ethyl]-1H-1,2,4-triazol-1-yl}nicotinonitril]
activity (nematicidal activity, gall formation) [12]: 90%
pest or weed control at 160 µg/disc, 500 g/ha [6]: 100%
pest or weed control at 5 µg/cm2 [8]: 100%
mortality at 500 g/ha [9]: 83%

Cc1nc([C@H](C)Nc2nc3cc(Cl)cc(C(F)(F)F)c3o2)n(-c2ccc(C#N)cn2)n1 [Example I-091, 6-{5-[(1S)-1-{[5-Chlor-7-(trifluormethyl)-1,3-benzoxazol-2-yl]amino}ethyl]-3-methyl-1H-1,2,4-triazol-1-yl)nicotinonitril]
activity (nematicidal activity, gall formation) [12]: 90%
mortality at 500 g/ha ([14]; 500 g/ha): 90%
pest or weed control at 0.02 mg [5]: 100%
pest or weed control at 5 µg/cm2 [8]: 90%

C[C@H](Nc1nc2c(Cl)cc(C(F)(F)F)cn2n1)c1ncnn1-c1ncccn1 [Example I-092, 8-chloro-N-{(1S)-1-[1-(pyrimidin-2-yl)-1H-1,2,4-triazol-5-yl]ethyl}-6-(trifluoromethyl)[1,2,4]triazolo[1,5-a]pyridin-2-amine]
pest or weed control at 5 µg/cm2, 5 µg/cm2 [1]: 90%
mortality at 100 g/ha [14]: 90%
pest or weed control at 0.02 mg [5]: 100%
pest or weed control at 5 µg/cm2 [8]: 100%
mortality at 100 ppm [10]: 100%

C[C@H](Nc1nc2c(Cl)cc(C(F)(F)F)cn2n1)c1ncnn1-c1ncc(Br)cn1 [Example I-093, N-{(1S)-1-[1-(5-bromopyrimidin-2-yl)-1H-1,2,4-triazol-5-yl]ethyl}-8-chloro-6-(trifluoromethyl)[1,2,4]triazolo[1,5-a]pyridin-2-amine]
pest or weed control at 5 µg/cm2, 5 µg/cm2 [1]: 100%
mortality at 100 g/ha [14]: 90%
pest or weed control at 5 µg/cm2 [8]: 100%
mortality at 100 ppm [10]: 100%
